Test [1] deals with T1, KRas^G12D (Homo sapiens, UniProt P01116, G12D).
T1 construct: Biotinylated KRas (corresponding to amino acids 1-169, produced at Accelegan Inc.); biotin (biotinylated); purchased Accelegan Inc
Nature of the test: KRas binding assay (TR-FRET tracer displacement), KRas G12D. Background: TR-FRET usually uses a lanthanide donor and a delayed reading to cut background.

Test [2] addresses T2, KRas^G12R (Homo sapiens, UniProt P01116, G12R).
T2 construct: Biotinylated KRas (corresponding to amino acids 1-169, produced at Accelegan Inc.); biotin (biotinylated); purchased Accelegan Inc
Kind of test: KRas binding assay (TR-FRET tracer displacement), KRas G12R.

Test [3] deals with T3, KRas^G12V (Homo sapiens, UniProt P01116, G12V).
T3 construct: Biotinylated KRas (corresponding to amino acids 1-169, produced at Accelegan Inc.); biotin (biotinylated); purchased Accelegan Inc
T3 sequence (P01116 1-169 isoform P01116-2 G12V): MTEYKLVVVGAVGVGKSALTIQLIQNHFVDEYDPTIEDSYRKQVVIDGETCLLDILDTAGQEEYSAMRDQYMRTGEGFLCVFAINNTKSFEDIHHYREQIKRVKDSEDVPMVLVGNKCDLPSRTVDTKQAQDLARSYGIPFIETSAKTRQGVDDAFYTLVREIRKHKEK
Kind of test: KRas binding assay (TR-FRET tracer displacement), KRas G12V.

In test [4] the test system is KRas-mediated phosphorylation of ERK in MKN1 cells. Kind of test: Inhibition of KRas-mediated phosphorylation of ERK (Cisbio HTRF pERK), MKN1 cells. Conditions: Homo sapiens, MKN-1. Type of test: cell-based. A digest of the protocol: (§1)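 HTRF pERK read-out; 6,000 cells/well, RPMI_10% FBS, overnight 37° C./5% CO2; 4 h covered incubation at RT before reading.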
Test [5] has as its system KRas-mediated phosphorylation of ERK in PSN1 cells. Nature of the test: Inhibition of KRas-mediated phosphorylation of ERK (Cisbio HTRF pERK), PSN1 cells. In kind it is cell-based. Particulars: Homo sapiens. A digest of the protocol:
as §1

The subject of test [6] is KRas-mediated phosphorylation of ERK in AsPC-1 cells. Kind of test: Inhibition of KRas-mediated phosphorylation of ERK (Cisbio HTRF pERK), AsPC-1 cells. In kind it is cell-based. Particulars: Homo sapiens, ASPC1, AsPC-1 cells; HTRF pERK. The gist of the method: (§2)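 Compound treatment lasts 3 hrs on 6,000 seeded cells, testing 10 doses from a 10 uM top concentration in 3-fold decrements at 0.8% final DMSO. Trametinib at 0.2 uM defines the Min signal. Detection is HTRF on cold-lysed cell extracts.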

Test [7] deals with KRas-mediated phosphorylation of ERK in H727 cells. Kind of test: Inhibition of KRas-mediated phosphorylation of ERK (Cisbio HTRF pERK), H727 cells. In kind it is cell-based. Conditions: Homo sapiens, NCI-H727, H727 cells; HTRF pERK. A digest of the protocol: as §2
For test [8], the system named is KRas-mediated phosphorylation of ERK in A549 cells. Kind of test: Inhibition of KRas-mediated phosphorylation of ERK (Cisbio HTRF pERK), A549 cells. Type of test: cell-based. Conditions: Homo sapiens; for inhibition at 0.1 µM: A549, 3 h, single point, 100 nM compound, 3 hrs; for IC50: HTRF pERK. A digest of the protocol: (§3)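 A cell-based HTRF pERK assay: ten-point, threefold titrations beginning at 10 uM were applied for 3 hrs, with 0.2 uM Trametinib wells as the minimum control. Cells were lysed cold, and lysate was incubated with the antibody pair for 2 hrs before reading.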

Test [9] relates to KRas-mediated phosphorylation of ERK in H460 cells. Nature of the test: Inhibition of KRas-mediated phosphorylation of ERK (Cisbio HTRF pERK), H460 cells. In kind it is cell-based. Conditions: Homo sapiens; for IC50: NCI-H460, HTRF pERK; for inhibition at 0.1 µM: NCI-H460, 3 h, single point, 100 nM compound, 3 hrs. The gist of the method:
as §2

The subject of test [10] is KRas-mediated phosphorylation of ERK in HCT116 cells. Nature of the test: Inhibition of KRas-mediated phosphorylation of ERK (Cisbio HTRF pERK), HCT116 cells. In kind it is cell-based. Conditions: Homo sapiens; for IC50: HCT-116, HTRF pERK; for inhibition at 0.1 µM: HCT-116, 3 h, single point, 100 nM compound, 3 hrs. A digest of the protocol:
as §3

The test system of test [11] is KRas-mediated phosphorylation of ERK in H358 cells. Kind of test: Inhibition of KRas-mediated phosphorylation of ERK (Cisbio HTRF pERK), H358 cells. Type of test: cell-based. Particulars: Homo sapiens; for inhibition at 0.1 µM: NCI-H358, 3 h, single point, 100 nM compound, 3 hrs; for IC50: NCI-H358, HTRF pERK. The gist of the method:
as §2

T1 sequence (P01116 1-169 isoform P01116-2 G12D): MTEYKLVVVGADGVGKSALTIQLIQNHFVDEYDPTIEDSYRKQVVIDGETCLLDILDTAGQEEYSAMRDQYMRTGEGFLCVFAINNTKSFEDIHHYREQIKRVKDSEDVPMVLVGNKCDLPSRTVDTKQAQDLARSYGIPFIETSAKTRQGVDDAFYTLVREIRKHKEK
T2 sequence (P01116 1-169 isoform P01116-2 G12R): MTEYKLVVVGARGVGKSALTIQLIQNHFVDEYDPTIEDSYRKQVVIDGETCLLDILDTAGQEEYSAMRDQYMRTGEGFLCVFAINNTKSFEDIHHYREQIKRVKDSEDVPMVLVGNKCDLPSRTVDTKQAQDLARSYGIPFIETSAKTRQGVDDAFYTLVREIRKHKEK

`CCc1c(F)ccc2cc(O)cc(-c3ncc4c(N5CCCC6(CNC(=O)N6)C5)nc(OC[C@]56CCCN5[C@H](COC(=O)N(C)C)CC6)nc4c3F)c12` (stereo partly drawn) [Example 711, ((3S,7aR)-7a-(((7-(8-ethyl-7-fluoro-3-hydroxynaphthalen-1-yl)-8-fluoro-4-(2-oxo-1,3,7-triazaspiro[4.5]decan-7-yl)pyrido[4,3-d]pyrimidin-2-yl)oxy)methyl)hexahydro-1H-pyrrolizin-3-yl)methyl dimethylcarbamate]: the IC50 in test [1] is under 2 nM; in test [2], under 2 nM; in test [3], under 2 nM; in test [4] it was 21 nM; in test [5], 6220 nM; in [6] it was 121 nM. The concentration for half-maximal inhibition (IC50) came to 196 nM in test [7], 109 nM in test [9] and 247 nM in test [10]. The inhibition at 0.1 µM is 43% in test [8] and 78% in test [11].
As to `C=C1[C@@H]2CC[C@H]1CN(c1nc(OC[C@@]34CCCN3C[C@H](F)C4)nc3c(F)c(-c4cc(O)cc5ccc(F)c(CC)c45)ncc13)C2` [Example 849, 5-ethyl-6-fluoro-4-(8-fluoro-2-(((2R,7aS)-2-fluorotetrahydro-1H-pyrrolizin-7a(5H)-yl)methoxy)-4-((1R,5S)-8-methylene-3-azabicyclo[3.2.1]octan-3-yl)pyrido[4,3-d]pyrimidin-7-yl)naphthalen-2-ol], the IC50 in [1] is 65 nM; in [2], 24 nM; in [3], 9 nM; in [4], 189 nM; in [5], over 10000 nM; in test [6] it was 3090 nM. In addition, the IC50 in test [7] came out at 1000 nM; in test [8] it was 1270 nM; in test [9], 802 nM; in test [10] it was 1780 nM; in [11], 286 nM.
Regarding `Oc1cc(-c2ncc3c(N4CCOCC5(CCO5)C4)nc(OC[C@@]45CCCN4C[C@H](F)C5)nc3c2F)c2c(Cl)c(F)ccc2c1` (stereo partly drawn) [Example 868, 5-chloro-6-fluoro-4-(8-fluoro-2-(((2R,7aS)-2-fluorotetrahydro-1H-pyrrolizin-7a(5H)-yl)methoxy)-4-(1,6-dioxa-9-azaspiro[3.6]decan-9-yl)pyrido[4,3-d]pyrimidin-7-yl)naphthalen-2-ol], the IC50 in test [1] was under 2 nM; in test [2] it was under 2 nM; in test [3] it was under 2 nM; in test [4], 21 nM; in test [5], 3420 nM; in [6], 17 nM. Further, the IC50 in test [7] worked out at 24 nM; in test [8], 61 nM; in [9], 22 nM; in test [10], 53 nM; in [11], 12 nM.
For the compound `C#Cc1c(F)ccc2cc(O)cc(-c3ncc4c(N5CCC[C@@](C)(O)C5)nc(OC[C@]56CCCN5[C@H](COC(=O)N(C)C)CC6)nc4c3F)c12` [Example 753, ((3S,7aR)-7a-(((7-(8-ethynyl-7-fluoro-3-hydroxynaphthalen-1-yl)-8-fluoro-4-((R)-3-hydroxy-3-methylpiperidin-1-yl)pyrido[4,3-d]pyrimidin-2-yl)oxy)methyl)hexahydro-1H-pyrrolizin-3-yl)methyl dimethylcarbamate], the IC50 in test [1] is under 2 nM; in test [2] it was 2 nM; in test [3] it was under 2 nM; in test [4], 14 nM; in test [5], 3080 nM; in test [6], 69 nM. This compound returned an IC50 in test [7] of 83 nM. In addition, the inhibition at 0.1 µM in test [8] stood at 2%; in test [9], 42%; in test [10], 23%; in test [11], 76%.
As to `CN(C)CC1(COc2nc(N3CCCC4(CCO4)C3)c3cnc(-c4cc(O)cc5ccc(F)c(Cl)c45)c(F)c3n2)CC1` (stereo not drawn) [Example 854, 5-chloro-4-(2-((1-((dimethylamino)methyl)cyclopropyl)methoxy)-8-fluoro-4-(1-oxa-6-azaspiro[3.5]nonan-6-yl)pyrido[4,3-d]pyrimidin-7-yl)-6-fluoronaphthalen-2-ol], the IC50 in [1] was under 2 nM; in [2], under 2 nM; in [3], under 2 nM; in test [4] it was 6 nM; in [5] it was 3690 nM; in test [6], 20 nM. Further, the IC50 was determined as 48 nM in test [7]; 36 nM in test [8]; 21 nM in test [9]; 40 nM in [10]; 11 nM in test [11].
For the compound `CCc1c(F)ccc2cc(O)cc(-c3ncc4c(N5CC6CCC(C5)C6(C)O)nc(OC[C@@]56CCCN5C[C@H](F)C6)nc4c3F)c12` (stereo partly drawn) [Example 846, (1R,5S,8R)-3-(7-(8-ethyl-7-fluoro-3-hydroxynaphthalen-1-yl)-8-fluoro-2-(((2R,7aS)-2-fluorotetrahydro-1H-pyrrolizin-7a(5H)-yl)methoxy)pyrido[4,3-d]pyrimidin-4-yl)-8-methyl-3-azabicyclo[3.2.1]octan-8-ol], the IC50 in [1] is 159 nM; in test [2] it was 38 nM; in test [3], 28 nM; in [4], 102 nM; in [5] it was over 10000 nM; in [6] it was 4470 nM. Also, the IC50 amounted to 2850 nM in [7]; 2680 nM in test [8]; 238 nM in test [9]; 572 nM in test [10]; 746 nM in test [11].
For the compound `CCc1c(F)ccc2cc(O)cc(-c3ncc4c(NCc5cc(C(=O)N(C)C)n(C(F)F)n5)nc(OC[C@@]56CCCN5C[C@H](F)C6)nc4c3F)c12` [Example 662, 1-(difluoromethyl)-3-(((7-(8-ethyl-7-fluoro-3-hydroxynaphthalen-1-yl)-8-fluoro-2-(((2R,7aS)-2-fluorohexahydro-1H-pyrrolizin-7a-yl)methoxy)pyrido[4,3-d]pyrimidin-4-yl)amino)methyl)-N,N-dimethyl-1H-pyrazole-5-carboxamide], the IC50 in test [1] is 3 nM; in [2], 3 nM; in test [3], under 2 nM; in test [4], 57 nM; in [5], over 10000 nM; in [6] it was 837 nM. In test [7], this compound registered an IC50 of 274 nM. The inhibition at 0.1 µM in [8] and in test [11] was 22% each time.
With `CCc1c(F)ccc2cc(O)cc(-c3ncc4c(N5CCCCC5)nc(OC[C@@]56CCCN5C[C@H](F)C6)nc4c3F)c12` [Example 900, 5-ethyl-6-fluoro-4-(8-fluoro-2-(((2R,7aS)-2-fluorotetrahydro-1H-pyrrolizin-7a(5H)-yl)methoxy)-4-(piperidin-1-yl)pyrido[4,3-d]pyrimidin-7-yl)naphthalen-2-ol], the concentration for half-maximal inhibition (IC50) in [4] was 3 nM; in test [5], over 10000 nM; in test [6], 213 nM; in [7], 240 nM; in test [8], 136 nM; in test [9] it was 96 nM. Also, the IC50 in [10] was found to be 504 nM; in test [11], 82 nM.
Regarding `CCc1c(F)ccc2cc(O)cc(-c3ncc4c(N5CCCc6nc(C(=O)N(C)C)ccc6C5)nc(OC[C@@]56CCCN5C[C@H](F)C6)nc4c3F)c12` [Example 666, 6-(7-(8-ethyl-7-fluoro-3-hydroxynaphthalen-1-yl)-8-fluoro-2-(((2R,7aS)-2-fluorohexahydro-1H-pyrrolizin-7a-yl)methoxy)pyrido[4,3-d]pyrimidin-4-yl)-N,N-dimethyl-6,7,8,9-tetrahydro-5H-pyrido[3,2-c]azepine-2-carboxamide], the IC50 in test [1] was under 2 nM; in test [2] it was under 2 nM; in [3] it was 2 nM; in test [4], 18 nM; in test [5], over 10000 nM; in test [6], 184 nM. Also, the IC50 in [7] came to 320 nM; in test [8] it was 207 nM. The inhibition at 0.1 µM in test [9] was 59%; in test [10], 24%.

As a reminder, the IC50 is the midpoint of a concentration-inhibition curve. By inhibition is commonly meant the share of the control response that was lost under treatment. The low end stands for little suppression, the high end for strong suppression.

(Values after US20260015350A1, “AZAQUINAZOLINE PAN-KRAS INHIBITORS” (Mirati Therapeutics, Inc., priority 2022, published 2026).)
